Legend:
Assay in all cases: SRB growth inhibition, 93 cell lines panel
Type in all cases: cell-based
15M15C3 = conditions: 15M15C3, bladder; read-out: GI50 of etoposide (±Compound 1)
Protocol: (§1) 90 μl of cells, after a 48-hour pre-growth period, were treated by mixing with 10 μl of the compound-containing media (resulting in a final DMSO concentration of 0.1%).
(§2) This is the drug concentration causing a 50% reduction compared to the net protein increase in control cells during the drug incubation period. In other words, G150 is IC50 corrected for time zero. […] TGI was calculated from Ti=Tz. […] It was calculated as 100×[(Ti−Tz)/Tz]=−50.

A375 = conditions: Homo sapiens, A-375; A375, skin; read-out: GI50 of etoposide (±Compound 1)
Protocol: as §1, §2

ASPC1 = conditions: Homo sapiens; ASPC1, pancreas; read-out: GI50 of etoposide (±Compound 1)
Protocol: as §1, §2

C33A = conditions: Homo sapiens, C-33-A, cervix, read-out: GI50 of etoposide (±Compound 1)
Protocol: as §1, §2

CALU6 = conditions: Homo sapiens, Calu-6; CALU6, lung; read-out: GI50 of etoposide (±Compound 1)
Protocol: as §1, §2

CASKI = conditions: Homo sapiens, Ca-Ski, cervix, read-out: GI50 of etoposide (±Compound 1)
Protocol: as §1, §2

COLO205 = conditions: Homo sapiens, COLO 205; COLO205, colon; read-out: GI50 of etoposide (±Compound 1)
Protocol: as §1, §2

DU145 = conditions: Homo sapiens, DU-145; DU145, prostate; read-out: GI50 of etoposide (±Compound 1)
Protocol: as §1, §2

HCT116 = conditions: Homo sapiens, HCT-116; HCT116, colon; read-out: GI50 of etoposide (±Compound 1)
Protocol: as §1, §2

HEK293 = conditions: Homo sapiens; HEK293, kidney; read-out: GI50 of etoposide (±Compound 1)
Protocol: as §1, §2

HS578T = conditions: Homo sapiens, Hs-578T, breast, read-out: GI50 of etoposide (±Compound 1)
Protocol: as §1, §2

HS729 = conditions: HS729, muscle; read-out: GI50 of etoposide (±Compound 1)
Protocol: as §1, §2

HT1080 = conditions: Homo sapiens, HT-1080; HT1080, connective tissue; read-out: GI50 of etoposide (±Compound 1)
Protocol: as §1, §2

IMR90 = conditions: Homo sapiens, IMR-90; IMR90, lung; read-out: GI50 of etoposide (±Compound 1)
Protocol: as §1, §2

J82 = conditions: Homo sapiens; J82, bladder; read-out: GI50 of etoposide (±Compound 1)
Protocol: as §1, §2

L-363 = conditions: Homo sapiens; L-363, hematological; read-out: GI50 of etoposide (±Compound 1)
Protocol: as §1, §2

LOVO = conditions: Homo sapiens, colon, read-out: GI50 of etoposide (±Compound 1)
Protocol: as §1, §2

MDAMB468 = conditions: Homo sapiens, MDA-MB-468; MDAMB468, breast; read-out: GI50 of etoposide (±Compound 1)
Protocol: as §1, §2

MIAPACA2 = conditions: Homo sapiens, MIA PaCa-2; MIAPACA2, pancreas; read-out: GI50 of etoposide (±Compound 1)
Protocol: as §1, §2

MINO = conditions: Homo sapiens, hematological, read-out: GI50 of etoposide (±Compound 1)
Protocol: as §1, §2

MV4-11 = conditions: Homo sapiens; MV4-11, hematological; read-out: GI50 of etoposide (±Compound 1)
Protocol: as §1, §2

PANC1005 = conditions: Homo sapiens; PANC1005, pancreas; read-out: GI50 of etoposide (±Compound 1)
Protocol: as §1, §2

RAMOS = conditions: Homo sapiens, hematological, read-out: GI50 of etoposide (±Compound 1)
Protocol: as §1, §2

RDES = conditions: RD-ES, bone, read-out: GI50 of etoposide (±Compound 1)
Protocol: as §1, §2

RD = conditions: Homo sapiens, muscle, read-out: GI50 of etoposide (±Compound 1)
Protocol: as §1, §2

SKBR3 = conditions: Homo sapiens, SK-BR-3; SKBR3, breast; read-out: GI50 of etoposide (±Compound 1)
Protocol: as §1, §2

SKLMS1 = conditions: Homo sapiens, SK-LMS-1; SKLMS1, uterus; read-out: GI50 of etoposide (±Compound 1)
Protocol: as §1, §2

SKMEL5 = conditions: Homo sapiens, SK-MEL-5; SKMEL5, skin; read-out: GI50 of etoposide (±Compound 1)
Protocol: as §1, §2

SU-DHL-6 = conditions: Homo sapiens; SU-DHL-6, hematological; read-out: GI50 of etoposide (±Compound 1)
Protocol: as §1, §2

SW620 = conditions: Homo sapiens, SW-620; SW620, colon; read-out: GI50 of etoposide (±Compound 1)
Protocol: as §1, §2

THP-1 = conditions: Homo sapiens; THP-1, hematological; read-out: GI50 of etoposide (±Compound 1)
Protocol: as §1, §2

COc1cc([C@@H]2c3cc4c(cc3[C@@H](O[C@@H]3O[C@@H]5CO[C@@H](C)O[C@H]5[C@H](O)[C@H]3O)[C@H]3COC(=O)[C@H]23)OCO4)cc(OC)c1O [Etoposide]
GI50 (15M15C3): 604 nM
GI50 (A375): 378 nM
GI50 (ASPC1): > 10000 nM
GI50 (C33A): 393 nM
GI50 (CALU6): 3650 nM
GI50 (CASKI): 1450 nM
GI50 (COLO205): 1050 nM
GI50 (DU145): 701 nM
GI50 (HCT116): 770 nM
GI50 (HEK293): 190 nM
GI50 (HS578T): 874 nM
GI50 (HS729): 730 nM
GI50 (HT1080): 96 nM
GI50 (IMR90): 704 nM
GI50 (J82): 7930 nM
GI50 (L-363): 327 nM
GI50 (LOVO): 606 nM
GI50 (MDAMB468): 1170 nM
GI50 (MIAPACA2): 689 nM
GI50 (MINO): 236 nM
GI50 (MV4-11): 38 nM
GI50 (PANC1005): 2730 nM
GI50 (RAMOS): 204 nM
GI50 (RDES): 412 nM
GI50 (RD): > 10000 nM
GI50 (SKBR3): 432 nM
GI50 (SKLMS1): 1640 nM
GI50 (SKMEL5): 558 nM
GI50 (SU-DHL-6): 665 nM
GI50 (SW620): 302 nM
GI50 (THP-1): 110 nM

— patent publication US11246929B2, “Combination of a protein kinase inhibitor and an additional chemotherapeutic agent” (Merck Patent GmbH, priority 2016, dated 2022)
